Assay results published in patent US4501747A, “Certain amide derivatives of 2-guanidino-thiazoles and compositions containing same” (Sanofi, priority 1982, dated 1985).
Where a name gives a salt, the structure may show the parent alone. Read-outs that look alike come from different tables or passages of the source.

What was measured:
rat stomach = settings: i.v., as maleate; cited from earlier work
histamine H2 receptors = target: T1, histamine H2 receptors (Rattus norvegicus, UniProt P25102); test: antisecretory activity: antagonism of the gastric acid hypersecretion induced by histamine in the atropinized rat (Ghosh and Schild, modified according to Black et al.); type: in vivo; settings: for ED50: read-out: DI50 (ID50: dose which inhibits by 50% the gastric hypersecretion induced by histamine)
T1 construct: from tissue; host or cells: stomach of the atropinized rat, in vivo (endogenous receptor)
Description: According to this test, a gastric acid hypersecretion is induced by intravenous infusion of a sub-maximal dose of histamine equivalent to 15 mcmol/kg/hour and the gastric secretion is measured by perfusion of a physiological solution at a constant speed in the stomach of the animal.
Such a ID50 represents the index of the gastric H2 -blocking action.

[1] = acute toxicity by intraperitoneal route in the mouse; type: in vivo; settings: in vivo, ip
Source text: (§1) With respect of their degree of activity, the compounds of the present invention are poorly toxic.

mouse = test: as above; type: in vivo; settings: 375 mg/kg
Source text: as §1

[2] = atropinized rat, intravenous route, single administration, histamine i.v. infusion 15 mcmol/kg/hour

T1 sequence (P25102 whole entry): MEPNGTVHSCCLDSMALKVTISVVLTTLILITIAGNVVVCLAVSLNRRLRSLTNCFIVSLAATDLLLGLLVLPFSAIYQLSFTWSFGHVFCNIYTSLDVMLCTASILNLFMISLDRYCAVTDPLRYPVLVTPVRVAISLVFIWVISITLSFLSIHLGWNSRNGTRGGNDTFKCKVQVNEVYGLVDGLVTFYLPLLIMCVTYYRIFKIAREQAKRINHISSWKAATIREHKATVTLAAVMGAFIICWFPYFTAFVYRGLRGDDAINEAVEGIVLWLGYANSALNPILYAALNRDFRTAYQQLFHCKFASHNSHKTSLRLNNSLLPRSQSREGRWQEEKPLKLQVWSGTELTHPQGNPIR

Row | Structure (SMILES) | ED50 (histamine H2 receptors; [2]) | Relative potency (cimetidine = 1) (histamine H2 receptors; atropinized rat, i.v.) | other results
1 | N=C(N)Nc1nc(CSCCNC=O)cs1 [2-guanidino-4-[(2-formamido)ethylthiomethyl]thiazol] |  |  | ED50 (rat stomach): 0.25 mg/kg
2 | CS(=O)(=O)Nc1ccc(C(=O)NCCSCc2csc(NC(=N)N)n2)cc1 [Compound A, 4-methanesulfonamido-N-[2-(2-guanidinothiazol-4-ylmethylthio)ethyl]benzamide, reference compound] | 1.66 µmol/kg | 0.57 | 
3 | N=C(N)Nc1nc(CSCCNC(=O)c2cccnc2)cs1 [Compound B, N-[2-(2-guanidinothiazol-4-ylmethylthio)ethyl]nicotinamide, reference compound] | 0.28 µmol/kg | 7.39 | LD50 [1]: 342 µmol/kg
4 | CNC(=C[N+](=O)[O-])NCCSCc1ccc(CN(C)C)o1 [Ranitidine, N-[2-[[5-[(dimethylamino)methyl]furfuryl]thio]ethyl]-N'-methyl-2-nitro-1,1-ethenediamine, reference compound] |  | 3.80 | 
5 | CS(=O)(=O)Nc1cccc(C(=O)NCCSCc2csc(NC(=N)N)n2)c1.Cl [SR 57938 A, 3-methanesulfonamido-N-[2-(2-guanidinothiazol-4-ylmethylthio)ethyl]benzamide hydrochloride] |  | 6.33 | activity compared with reference compounds (histamine H2 receptors; comparison in words, from Table I, atropinized rat, i.v.): ten times more active than "Compound A"; ED50 (histamine H2 receptors; rat, iv): 0.15 µmol/kg
6 | N=C(N)Nc1nc(CSCCNC(=O)c2ccc[n+]([O-])c2)cs1 [SR 57957 A, neutral fumarate of N-[2-(2-guanidinothiazol-4-ylmethylthio)ethyl]-3-pyridine carboxamide 1-oxide] | 0.1 µmol/kg | 9.5 | LD50 [1]: > 900 µmol/kg; mortality (mouse): does not cause any mortality
7 | N=C(N)Nc1nc(CSCCNC(=O)c2cccc(NS(=O)(=O)c3ccccc3)c2)cs1 [SR 57963 A, neutral fumarate of 3-benzenesulfonamido-N-[2-(2-guanidinothiazol-4-ylmethylthio)ethyl]benzamide] | 0.065 µmol/kg | 14.6 | 
